Data as given in US7504410B2, “Chk-, Pdk- and Akt-inhibitory pyrimidines, their production and use as pharmaceutical agents” (Schering Aktiengesellschaft, priority 2002, dated 2009).

Molecular target: T1, Chk1 (Homo sapiens, UniProt O14757)
T1 construct: His6 (C); made in house; host or cells: Sf-9 insect cells (baculovirus)
T1 sequence (O14757 1-476): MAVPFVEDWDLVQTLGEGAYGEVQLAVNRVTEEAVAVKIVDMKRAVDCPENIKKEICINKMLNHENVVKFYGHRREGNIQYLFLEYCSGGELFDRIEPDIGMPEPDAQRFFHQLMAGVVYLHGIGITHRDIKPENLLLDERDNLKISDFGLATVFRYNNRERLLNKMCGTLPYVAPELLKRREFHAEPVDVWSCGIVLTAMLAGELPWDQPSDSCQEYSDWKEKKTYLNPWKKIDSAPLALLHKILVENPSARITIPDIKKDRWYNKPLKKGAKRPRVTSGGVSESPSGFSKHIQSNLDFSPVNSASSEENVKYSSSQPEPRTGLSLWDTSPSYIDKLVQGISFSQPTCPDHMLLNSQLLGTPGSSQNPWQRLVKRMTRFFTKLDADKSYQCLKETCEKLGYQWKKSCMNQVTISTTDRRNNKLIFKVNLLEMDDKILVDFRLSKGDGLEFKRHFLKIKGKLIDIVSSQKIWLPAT
Assay: Chk1 kinase assay (SPA)
Type: biochemical
Settings: read-out: Chk-1 IC50
Text: Recombinant Chk1-His6-fusion protein, expressed in insect cells (Sf-9) and purified by Ni-NTA affinity chromatography was used as kinase. Alternatively, commercially available GST-Chk1-fusion protein (Upstate Biotechnology, Dundee, Scotland) can be used. As substrate for the kinase reaction the biotinylated peptide biotin-Arg-Ser-Gly-Leu-Tyr-Arg-Ser-Pro-Ser-Met-Pro-Glu-Asn-Leu-Asn-Arg-Pro-Arg-OH was used which can be purchased e.g. from the company Biosyntan GmbH (Berlin-Buch, Germany).
Chk1 (200 ng/measurement point) was incubated for 60 min at 22 °C in the presence of different concentrations of test compounds (0 μM and concentrations in the range 0.001-30 μM) in 30 μl assay buffer [50 mM Hepes/NaOH pH7.5, 10 mM MgCl2, 1 mM MnCl2, 0.1 mM sodium ortho-vanadate, 1.0 mM dithiothreitol, 0.5 μM adenosine-tri-phosphate (ATP), 1.9 μM substrate peptide (Biotin-Arg-Ser-Gly-Leu-Tyr-Arg-Ser-ProSer-Met-Pro-Glu-Asn-Leu-Asn-Arg-Pro-Arg-OH), 6 nCi/measurement point ^33P-gamma ATP, 0.008% NP40, 1.5% (v/v) dimethylsulfoxide]. The reaction was stopped by the addition of 20 μl of a suspension of streptavidine coated PVT-SPA-beads (0.15 mg/measurement point, from Amersham Biotech) in an aqueous EDTA/ATP-solution (20 mM EDTA, 50 μM ATP, 1% (v/v) Triton X-100 in PBS).
The resulting mixture was incubated further 16 h at 22° C. to allow the binding of the biotinylated peptide to the streptavidine coated PVT-SPA-beads and to allow the sedimentation of the beads. Subsequently the amount of 33P incorporated into the substrate peptide was evaluated by scintillation measurement in a Topcount NXT (Perkin-Elmer).

IC50 | SMILES
440 nM | Brc1cnc(Nc2cccc(CN3CC=CC3)c2)nc1NCCc1c[nH]cn1 [Example 65]
20 nM | O=C(Cc1ccc(Cl)cc1Cl)NCCCNc1nc(Nc2cccc(NC(=O)N3CCCC3)c2)ncc1Br [Example 699]

More lines, now with the values behind:

SMILES | IC50
C#CCOc1nc(Nc2cc(NC(=O)[C@H](N)Cc3ccccc3)cc(NC(=O)N3CCCC3)c2)ncc1Br [Example A16] | 300 nM
C#CCOc1nc(Nc2cc(CO)cc(NC(=O)[C@H](N)Cc3ccccc3)c2)ncc1Br [Example A17, (αR)-α-Amino-N-[3-[[5-bromo-4-(prop-2-ynyloxy)pyrimidin-2-yl]amino]-5-(hydroxymethyl)phenyl]benzenepropanamide] | 200 nM
C#CCOc1nc(Nc2cc(CO)cc(NCCO)c2)ncc1Br [Example A18, 3-[[5-Bromo-4-(prop-2-ynyloxy)pyrimidin-2-yl]amino]-5-[(2-hydroxyethyl)amino]benzenemethanol] | 80 nM

Molecular target: not listed separately
Assay: PDK-1-dependent activation and subsequent enzymatic activity of AKT2 (SPA)
Type: biochemical, human
Settings: AKT2 activated by PDK-1 in the assay; read-out: Akt-2 inhibition IC50
Procedure: PDK-1-dependent activation and subsequent enzymatic activity of AKT2: Purified human AKT2 activity was routinely measured in an assay in which the enzyme was first activated by PDK-1 in the presence of phosphatidylinositol-4,5-bisphosphate (PIP2). Once activated, AKT2-dependent phosphorylation of a peptide substrate was measured by scintillation proximity assay (SPA).
Phospholipid vesicles were prepared as follows: 2.2 mg each of phosphatidylcholine (Sigma Cat # P-1287) and phosphatidylserine (Sigma Cat #P-6641) were transferred to a borosilicate glass test tube and dried down under nitrogen. 1 mg of PIP2 (Biomol Cat #PH-106) was suspended in 9.5 ml of 10 mM HEPES, pH 7.5 and transferred to the dried lipids. The tube was vortexed until a milky suspension was produced. Then the tube was placed in a ice water-jacketed cup horn sonicator (Branson Instruments) and subjected to sonication for 20 min at medium power until a translucent phospholipid vesicle preparation was obtained. Aliquots of the vesicle suspension were frozen at −80 °C until needed.
Assays were performed in 96-well polypropylene V-bottom plates. Incubations were carried out for 2 hr at room temperature. The assay mixture contained in a volume of 60 μL: 15 mM MOPS, pH 7.2, 1 mg/ml bovine serum albumin, 18 mM betaglycerolphosphate, 0.7 mM dithiothreitol, 3 mM EGTA, 10 mM MgOAc, 7.5 (M ATP, 0.2 μCi of [γ-^33P]ATP, 7.5 μM biotinylated peptide substrate (biotin-ARRRDGGGAQPFRPRAATF), 0.5 μL of PIP2-containing phospholipid vesicles, 60 pg of purified recombinant human PDK-1, and 172 ng of purified recombinant human AKT2. Test compounds were added from stock solutions in DMSO. The final concentration of DMSO was 2.5%. Following incubation, 10 μL of the assay mixture was transferred to a 96-well clear-bottom polystyrene plate (Wallac Isoplate) containing 0.33 mg of streptavidin-coated SPA beads (Amersham Cat. # RPNQ0007) suspended in 200 μL of phosphate-buffered saline, pH 7.4, containing 50 mM EDTA and 0.1% Triton X-100. After brief shaking, the SPA beads were allowed to settle to the bottom of the plate overnight at room temperature. […] PDK-1 was added at sub-optimal levels so that the assay could sensitively detect inhibitors of AKT2 activation as well as direct AKT2 kinase inhibitors. The z′-factor for the assay was greater than 0.7.
Phosphorylation was readily observed, however, upon addition of purified activated human AKT1 (purchased from Upstate Biotechnology), independent of the presence or absence of added PDK-1 or PIP2-containing vesicles.

IC50 | SMILES
6 nM | O=C(Nc1cccc(Nc2ncc(Br)c(NCCc3c[nH]cn3)n2)c1)N1CCCC1 [Example 220]
23 nM | NC(=O)C1(C(=O)NCCCNc2nc(Nc3cccc(NC(=O)[C@@H]4CCCN4)c3)ncc2Br)CC1 [Example 492]

The remaining lines, values behind:

SMILES | IC50
CC(C)(C(N)=O)C(=O)NCCCNc1nc(Nc2cccc(NC(=O)[C@H](N)Cc3ccccc3)c2)ncc1Br [Example 504] | 24 nM
CC(C)(C(N)=O)C(=O)NCCCNc1nc(Nc2cccc(NC(=O)[C@@H](N)c3ccccc3)c2)ncc1Br [Example 521] | 44 nM
CC(C)(C(N)=O)C(=O)NCCCNc1nc(Nc2cccc(N3C(=O)CNC3=O)c2)ncc1Br [Example 540] | 19 nM
CN1CC(=O)N(c2cccc(Nc3ncc(Br)c(NCCCNC(=O)[C@@H]4CSC(=O)N4)n3)c2)C1=O [Example 546] | 4 nM

Molecular target: T2, VEGFR II (KDR) (Homo sapiens, UniProt P35968)
T2 construct: GST; made in house; host or cells: Sf-9 insect cells
Assay: KDR kinase assay (HTRF)
Type: biochemical
Settings: not given
Text: Recombinant KDR-GST-fusion protein, expressed in insect cells (Sf-9) and purified by Glutathion affinity chrormatography was used as kinase. Alternatively, commercially available GST-KDR-fusion protein (Proqinase, Freiburg i.Brsg., Germany) can be used. As substrate for the kinase reaction the biotinylated copolymer poly-(Glu, Tyr-4:1) which can be purchased e.g. from the company Cisbiointernational (Marcoule, France).
In a black low volume 384 well microtiterplate (Greiner, Frickenhausen, Germany) KDR (enzyme amount depending on lot, adjusted to give an dF of about 300-400) was incubated for 20 min at 22° C. in the presence of different concentrations of test compounds (0 μM and concentrations in the range 0.001-30 μM) in 15 μl assay buffer [50 mM Hepes/NaOH pH7.0, 25 mM MgCl2, 5 mM MnCl2, 0.5 mM sodium ortho-vanadate, 1.0 mM dithiothreitol, 1 μM adenosine-tri-phosphate (ATP), 23.5 μg/ml substrate [biotinylated poly-(Glu, Tyr; 4:1)], 1.5% (v/v) dimethylsulfoxide]. The reaction was stopped by the addition of 5 μl of a solution of the detection reagents [0.3 μg/ml Eu-W1024-labeled antiphosphotyrosine antibody (PT66) (Perkin-Elmer) and 4.125 μg/ml […] (Cisbiointernational, Marcoule, France)] in an aqueous EDTA-solution (250 mM EDTA, 0.1% (w/v) bovine serum albumine in 100 mM HEPES/NaOH pH 7.0).
The resulting mixture was incubated further 2 h at 22° C. to allow the binding of the biotinylated substrate and product to the SA-XL-665 and the EU labeled anti-phosphotyrosine antibody. Subsequently the amount of phosphate incorporated into the substrate was evaluated by resonance energy transfer measurement in a HTRF reader (Discovery, Perkin-Elmer).
The IC50 values are determined from the inhibitor concentration that is necessary to inhibit the phosphate incorporation to 50% of the uninhibited incorporation after removal of the blank reading (EDTA-stopped reaction).

T2 sequence (P35968 20-1356, species assumed): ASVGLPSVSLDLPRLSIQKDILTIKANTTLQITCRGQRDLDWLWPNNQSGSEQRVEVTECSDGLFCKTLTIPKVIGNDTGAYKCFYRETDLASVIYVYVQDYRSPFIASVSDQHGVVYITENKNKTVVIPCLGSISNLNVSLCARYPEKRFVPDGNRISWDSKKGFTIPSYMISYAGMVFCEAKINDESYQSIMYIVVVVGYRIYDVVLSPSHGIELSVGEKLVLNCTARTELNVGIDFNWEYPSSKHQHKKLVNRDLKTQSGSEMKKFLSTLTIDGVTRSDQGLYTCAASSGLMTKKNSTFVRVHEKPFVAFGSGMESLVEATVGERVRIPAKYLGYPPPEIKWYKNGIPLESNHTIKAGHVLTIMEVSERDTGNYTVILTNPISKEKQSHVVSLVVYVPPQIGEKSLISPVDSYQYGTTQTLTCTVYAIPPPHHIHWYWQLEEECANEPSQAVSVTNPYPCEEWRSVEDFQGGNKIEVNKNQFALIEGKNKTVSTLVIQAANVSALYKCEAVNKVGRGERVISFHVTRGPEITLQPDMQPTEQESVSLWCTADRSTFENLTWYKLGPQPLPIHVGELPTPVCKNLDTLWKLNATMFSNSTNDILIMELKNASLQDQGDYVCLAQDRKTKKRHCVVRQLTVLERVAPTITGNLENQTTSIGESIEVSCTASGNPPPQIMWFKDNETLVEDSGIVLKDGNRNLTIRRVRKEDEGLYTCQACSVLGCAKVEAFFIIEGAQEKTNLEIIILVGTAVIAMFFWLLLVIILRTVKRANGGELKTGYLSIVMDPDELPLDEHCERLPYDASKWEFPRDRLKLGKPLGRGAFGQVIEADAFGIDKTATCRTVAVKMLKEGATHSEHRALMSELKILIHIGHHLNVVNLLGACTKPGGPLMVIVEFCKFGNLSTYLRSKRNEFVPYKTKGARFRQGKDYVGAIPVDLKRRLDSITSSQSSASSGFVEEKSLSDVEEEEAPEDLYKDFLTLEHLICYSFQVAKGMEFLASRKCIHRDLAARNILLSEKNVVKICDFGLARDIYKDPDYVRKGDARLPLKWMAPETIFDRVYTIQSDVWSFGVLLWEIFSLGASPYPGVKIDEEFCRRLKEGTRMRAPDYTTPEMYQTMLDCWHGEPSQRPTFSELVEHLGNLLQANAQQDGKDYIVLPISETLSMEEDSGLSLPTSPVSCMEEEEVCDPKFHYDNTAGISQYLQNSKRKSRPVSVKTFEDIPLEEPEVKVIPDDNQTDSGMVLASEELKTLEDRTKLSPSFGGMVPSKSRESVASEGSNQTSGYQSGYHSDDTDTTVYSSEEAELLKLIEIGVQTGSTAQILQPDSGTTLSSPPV

IC50 | SMILES
330 nM | CCN(CCN1CCCCC1)C(=O)Nc1cccc(Nc2ncc(Br)c(NCCc3c[nH]cn3)n2)c1 [Example 389]
32 nM | CN1CC(=O)N(c2cccc(Nc3ncc(Br)c(NCCc4c[nH]cn4)n3)c2)C1=O [Example 395]
9.7 nM | O=C1N[C@H](C(=O)NCCCNc2nc(Nc3cccc(NC(=O)N4CCCC4)c3)ncc2Br)CS1 [Example 452]
400 nM | CC(C)CC(=O)NCCCNc1nc(Nc2cccc(NC(=O)N3CCCC3)c2)ncc1Br [Example 473]
740 nM | CCOC(=O)NCCCNc1nc(Nc2cccc(NC(=O)N3CCCC3)c2)ncc1Br [Example 477]
1400 nM | C[C@@H](N)C(=O)NCCCNc1nc(Nc2cccc(NC(=O)N3CCCC3)c2)ncc1Br [Example 512]

Second part, the compound before the results:

SMILES | IC50
O=C1N[C@H](C(=O)NCCCNc2nc(Nc3cccc(N4C(=O)CNC4=O)c3)ncc2Br)CS1 [Example 535] | 2.6 nM
O=C1CC[C@@H](C(=O)NCCCNc2nc(Nc3cccc(N4C(=O)CNC4=O)c3)ncc2Br)N1 [Example 539] | 10.6 nM
CN1CC(=O)N(c2cccc(Nc3ncc(Br)c(NCCCNC(=O)[C@@H]4CSC(=O)N4)n3)c2)C1=O [Example 546] | 4 nM
